Measurements from patent US9670238B1 (priority 2015, dated 2017).
“Also recorded” adds a separate entry of the source. Where two headings read alike, the source gives them in different places.

Assays:
[1] = target: T1, CDA (1-146aa), Human, His-tagged, Recombinant cytidine deaminase (Homo sapiens, UniProt P32320); format: in vitro ADME; conditions: PBS with cytidine deaminase, 37° C., about 30 minutes to 1 hour
T1 construct: CDA (1-146aa), Human, His-tagged; His tag; purchased ATGen
Experimental: 1 mg each of the 5′-dibenzyl phosphate derivatives of 5-azacytidines (formula (1)) was dissolved in 1 mL of acetonitrile. 10 μL of the solution was diluted with 1 mL of PBS. 10 μL of PBS solution of cytidine deaminase was added and stirred at 37° C. for about 30 minutes to 1 hour. 1 mL of acetonitrile was added to the reaction solution and separated by centrifugation. The supernatant obtained was analyzed with HPLC.
Cytidine deaminase: CDA (1-146aa), Human, His-tagged, Recombinant cytidine deaminase (ATGen)
Column: CAPCELL PAK ADME (4.6 mm×150 mm, particle size:3 μm)
Elution: A=Purified water containing 10 mM ammonium formate • B=Acetonitrile • Gradient mode: A:B=99:1→5:95/30 minutes

[2] = system: myeloma cells (RPMI-8226); assay: Anti-myeloma activity, inhibition of cell proliferation; format: cell-based; conditions: RPMI-8226, 72 hours incubation, cell count
Experimental: To the solutions containing about 4000 myeloma cells (RPMI-8226), solutions of 5′-dibenzyl phosphate derivatives of 5-azacytidines at concentrations of 0.0033 μM, 0.01 μM, 0.033 μM, 0.1 μM, 0.33 μM, 1 μM, 3.3 μM, 10 μM, 33 μM, or 100 μM were added. After incubation in RPMI-1640 (containing 10% FBS and 1% Penn-strep) for 72 hours, cell count was determined and the values of IC50 were calculated as inhibitory effect against cell proliferation (referring to Journal of Clinical Pathology, 2006, 59, 947-951).

[3] = Non-enzymatic hydrolysis reactivity in PBS solution at 37° C. (HPLC); format: physicochemical; conditions: for 5-Azacytidine or 2′-deoxy-5-azacytidine (%) After 4 hours / 5-Azacytidine or 2′-deoxy-5-azacytidine (%) After 8 hours / 5-Azacytidine or 2′-deoxy-5-azacytidine (%) After 24 hours: PBS pH7.4 to 7.5, 37° C.; for Hydrolysis in PBS solution to the corresponding 5-azacytidines (in words): 37° C., up to 24 hours
Experimental: About 1 mg each of the obtained 5′-dibenzyl phosphate derivatives of 5-azacytidines (referring to formula (1)), such as O,O′-dibenzyl 5-azacytidylate (compound A) or O,O′-dibenzyl 2′-deoxy-5-azacytidylate (compound B) was dissolved in 1 mL of acetonitrile. 5 μL of the solution was added to 100 μL of PBS solution (pH7.4 to 7.5) and the solution was stirred at 37° C. The reactions were traced by HPLC analysis.
HPLC conditions were same as those in test example 1.

[4] = Partition coefficient (n-octanol/PBS); format: physicochemical
Excerpt: The separation systems using a silica gel column, separation yields, data obtained from instrumental analysis and partition coefficients of 5′-dibenzyl (or diphenethyl, diphenyl) phosphate derivatives of 5-azacytidines (compounds A to H) which were synthesized according to the methods A and B are shown as below.

T1 sequence (P32320 whole entry): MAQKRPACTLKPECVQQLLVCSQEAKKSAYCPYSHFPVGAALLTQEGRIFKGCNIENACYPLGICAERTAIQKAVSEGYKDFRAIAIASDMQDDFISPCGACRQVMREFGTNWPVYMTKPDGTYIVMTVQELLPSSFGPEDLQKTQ

Compound | Change in HPLC pattern (peak of the starting material) [1] | Change in HPLC pattern (peak of the starting material) ([1]; listed as 2′-deoxy-5-azacytidine) | IC50 ([2]; Homo sapiens) [nM] | IC50 [2] [nM] | 5-Azacytidine or 2′-deoxy-5-azacytidine (%) After 4 hours [3] [%] | 5-Azacytidine or 2′-deoxy-5-azacytidine (%) After 8 hours [3] [%] | 5-Azacytidine or 2′-deoxy-5-azacytidine (%) After 24 hours [3] [%] | Hydrolysis in PBS solution to the corresponding 5-azacytidines (in words) [3] | Partition coefficient, Log P [4]
Nc1ncn([C@H]2C[C@H](O)[C@@H](CO)O2)c(=O)n1 [2′-Deoxy-5-azacytidine, 2′-deoxy-5-azacytidine, reference compound] | The peak of the starting material disappeared | disappeared completely | 30 |  |  |  |  |  | 
O,O′-di(4-fluoro)benzyl 2′-deoxy-5-azacytidylate [compound D] | Almost no change in the peak of the starting |  |  | 780 |  |  |  |  | 
O,O′-dibenzyl 2′-deoxy-5-azacytidylate [compound B] | Almost no change in the peak of the starting |  |  |  | 8 | 8 | 45 | gradually hydrolyzed | 
O,O′-dibenzyl 5-azacytidylate [compound A] | Almost no change in the peak of the starting |  |  | 1710 | 18 | 35 | 67 | gradually hydrolyzed | 0.83
O,O′-diphenethyl 5-azacytidylate [compound F] | Almost no change in the peak of the starting |  |  |  |  |  |  | almost no change was confirmed even after 24 hours; also recorded: could not be observed | 
O,O′-diphenyl 2′-deoxy-5-azacytidylate [compound H] | extremely stable |  |  |  |  |  |  |  | 
O,O′-diphenyl 5-azacytidylate [compound G] | extremely stable |  |  | > 100000 |  |  |  | almost no change was confirmed even after 24 hours; also recorded: could not be observed | 
